# According to the METLIN SMRT retention time set (Domingo-Almenara et al. 2019):
# Experiment: gradient 5% acetonitrile 3 min, to 50% in 2 min, to 85% in 15 min, held 3 min, 100 µL/min
# Details: column: Zorbax Extend-C18 2.1 x 50 mm; eluents: water / acetonitrile, 0.1% formic acid
# Summary of the method: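 Each retention time is based on an adduct peak selected computationally and verified by manual inspection. Measurements used HPLC–quadrupole time-of-flight mass spectrometry in positive and negative ionization mode on mixtures of ~100 pure standards. Chromatography ran on a Zorbax Extend-C18 column (2.1 × 50 mm, 1.8 μm) at 100 μL/min with water and acetonitrile, each containing 0.1% formic acid, and dead and dwell volumes of 40 μL and 900 μL.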
row,Structure (SMILES),RP-LC retention time [s]
1,COCc1nc2cccnc2n1C1CCN(C(=O)Nc2cc(OC)cc(OC)c2)CC1,696
2,Clc1cccc(-c2ccc(CNCc3ccc4c(c3)OCO4)o2)c1,741
3,CC1CCN(C(=O)c2cn(-c3ccc(S(=O)(=O)N4CCCC(C)C4)cn3)cn2)CC1 (centres undefined),954
4,O=C(NCC(O)C1CCCCC1)c1ccsc1 (centres undefined),689
5,Cc1cc2c(cc1S(=O)(=O)N(C)CC(=O)N1CCN(c3ccccn3)CC1)OCC(=O)N2,583
6,Nc1ccc2ncnc(N3CCCCC3)c2c1,593
7,O=C(c1ccco1)N1CCN(C(=O)c2nnn3c2COC(c2ccc(Cl)cc2)C3)CC1 (centres undefined),838
8,CN1C(=O)C2CCCCN2c2ccc(C(=O)N3CCN(c4ccccn4)CC3)cc21 (centres undefined),603
9,CCCN1CCN(C(=O)c2cnn(-c3cc(-c4nc(C(C)(C)C)no4)ccn3)c2C)CC1,715
10,CCCCn1nc(-c2nc(-c3ccc(F)cc3)no2)ccc1=O,1100
11,Cc1nn2c(S(=O)(=O)N3CCCCC3)c(C(C)C)nc2s1,911
12,COc1cc(OC)cc(-c2noc(-c3nn(-c4cccc(F)c4)ccc3=O)n2)c1,881
13,Cc1ccc(/C=C/c2nc(-c3ccc4c(c3)oc(=O)n4C)no2)cc1,1110
14,Cc1ccc(NS(=O)(=O)c2cc3n(c2)CCCNC3=O)cc1F,669
15,O=C(Nc1cnn(-c2ncc(N3CCSCC3)cn2)c1)C1CCCO1 (centres undefined),665
16,Cc1cccc(N2CCN(Cc3nc(-c4ccc(N5CCCCC5)nc4)no3)CC2)c1,965
17,CN(CC1CCOC1)C(=O)c1ccc(F)cc1Cl (centres undefined),704
18,Cc1csc(-c2cc(S(=O)(=O)Nc3cc(F)ccc3Cl)cn2CC(=O)N2CCCC2)n1,957
19,CCCOc1nc2ccccc2nc1N1CCCC(C(=O)NC2CCCCC2)C1 (centres undefined),1260
20,Cc1nnc2sc(-c3cccs3)nn2c1=O,664
21,COC(=O)c1ccc2nc(NC(=O)c3cc(Cl)ccc3Cl)sc2c1,965
22,CN1CC=C(c2noc(CCC(=O)N3CCC(c4ccccc4)C3)n2)CC1 (centres undefined),631
23,COc1ccc(-c2nc(C3CC(=O)N(c4ccc(F)cc4)C3)no2)c(OC)c1 (centres undefined),898
24,O=C(O)c1cccc(Nc2c(-c3ccc(N4CCOCC4)cc3)nc3cnccn23)c1,648

row,Structure (SMILES),RP-LC retention time [s]
1,CCOC(=O)c1noc2nc(C)nc(Nc3ccc(OC)cc3)c12,938
2,CCN1CCCC1CN(CC(=O)N1CCNCC1)S(=O)(=O)c1cc(Cl)ccc1OC (centres undefined),573
3,Cc1ccc(-c2nnc(Cc3nc(-c4ccc(OCC(C)C)cc4)no3)o2)cc1F,919
4,Cc1noc2ncnc(N3CCCC(C(=O)N4CCC(Cc5ccccc5)CC4)C3)c12 (centres undefined),986
5,CS(=O)(=O)N1CCC(Cc2ccc(C(=O)O)cc2)CC1,728
6,COC(=O)C1CCN(S(=O)(=O)c2ccc(Cl)c(-c3nnc(-c4ccc(OC)cc4)o3)c2)CC1,1050
7,Cc1ccc(CN2CCN(C3CCN(C(=O)Nc4ccc(C)cc4)CC3)C(=O)C2=O)cc1,768
8,CCOC(=O)c1[nH]c(C)c(CCC(=O)N2CCC(C(=O)NC3CCCCC3)CC2)c1C,778
9,O=C(Cn1cnc2nc(N3CCCC(C(=O)NC4CC4)C3)sc2c1=O)Nc1ccccc1Cl (centres undefined),686
10,Cc1c(Cl)cccc1S(=O)(=O)N1CCC2(CC1)OCCS2,1050
11,CS(=O)(=O)c1ccc(SCC(=O)N2CCOCC2)c([N+](=O)[O-])c1,636
12,CNS(=O)(=O)c1cccc(-c2nnc(-c3ccc(C)cc3)o2)c1,856
13,Cn1c(CNC(=O)C2CCC2)nc2c1CN(C(=O)Nc1ccc(F)cc1)CC2,603
14,O=C(Cc1ccsc1)Nc1ccc2ncnc(N3CCCCC3)c2c1,666
15,CCC(c1cccs1)N1C(=O)[C@H]2CN(S(=O)(=O)c3ccc(F)cc3F)C[C@H]2C1=O (some centres undefined),1000
16,Cc1nc(NC(=O)C2CC(=O)N(c3n[nH]c4cccc(F)c34)C2)sc1C (centres undefined),688
17,O=C(c1ccc(Cl)c(Cl)c1)N1CCC2(CC1)OCCS2,890
18,COc1ccc(N2CC(CNC(=O)Nc3c(F)cccc3F)CC2=O)cc1 (centres undefined),658
19,CC1(CNS(=O)(=O)c2ccc(F)c(F)c2)CCOCC1,810
20,CCCN1C(=O)COc2ccc(-c3noc(-c4ccc(OC)cc4OC)n3)cc21,1100
21,Nc1ccc(-c2nc3nc(N)nc(N)c3nc2-c2ccc(N)cc2)cc1,596
22,CCOC(=O)c1ccc(NC(=O)CN2CCC(C)CC2)cc1,561
23,COc1ccc(-c2nnc(N3CCC(C(=O)Nc4ccc(OC)c(OC)c4)CC3)o2)cc1,748

# Next, values leading:
row,RP-LC retention time [s],Structure (SMILES)
1,863,Cc1nc2nc(-c3ccccc3)nn2c(Sc2ccc(N)cc2)c1C
2,845,O=C(c1ccc2oc(=O)n(CC(=O)N3CCc4ccccc43)c2c1)N1CCCCC1
3,701,NCCNS(=O)(=O)c1cccc2c(Cl)cccc12
4,759,Cc1ccc(CN2CCN(CC(=O)Nc3ccc(Cl)cn3)C(=O)C2=O)cc1
5,876,COC(=O)c1[nH]c(C)c(CN(C)C(=O)c2ccc(Br)cc2)c1C
6,686,Cc1nn(C(C)C(=O)NCCN(C)Cc2ccccc2)c(=O)c2c(C)n(-c3ccccc3)nc12 (centres undefined)
7,635,COCc1cc(=O)n(CC(=O)Nc2cccc(Cl)c2)c(N)n1
8,847,COC(=O)c1ccc(N2C=C(C#N)S(=O)(=O)c3cc(F)ccc32)cc1
9,744,CCOc1ccc(NC(=O)C2CC(=O)N(c3n[nH]c4cccc(F)c34)C2)cc1 (centres undefined)
10,712,O=C(NC1CCN(c2cc(-c3ccc(Cl)cc3)[nH]n2)C1)c1ccccc1 (centres undefined)
11,726,O=C(COc1ccc(-c2cnc3ccccc3n2)cc1)NCC1CCCO1 (centres undefined)
12,817,Cc1nc([N+](=O)[O-])c(N2CCCC2)n1Cc1ccccc1
13,953,CCOc1ccc(OCC)c(NC(=O)C(C)Oc2ccc(=O)n(-c3ccc(F)cc3)n2)c1 (centres undefined)
14,1160,CCCSCCCNc1nc(-c2nnc(-c3ccc(C)cc3)o2)nc2ccccc12
15,789,Cc1nc(-c2ccccn2)cc2nn(CC(=O)N3CCCc4ccccc43)c(=O)n12
16,756,CC(C)C(NC(=O)c1ccc(F)c(Cl)c1)C(=O)Nc1nc2ccccc2[nH]1 (centres undefined)
17,1040,CCOc1ccc(C(=O)Nc2cc(Cl)ccc2C)nn1
18,929,COc1ccc(-c2cc3n(n2)CCCN(C(=O)NCc2ccccc2)C3)cc1OC
19,563,Cc1ccc2[nH]cc(NC(=O)NCCN(C)C)c(=O)c2c1
20,741,CC(=O)N1CCc2cc(N3CC(C(=O)NCc4cccc(F)c4)CC3=O)ccc21 (centres undefined)
21,1310,CCOc1ccccc1NS(=O)(=O)c1cc(-c2nc(C(C)(C)C)cs2)cs1

row,RP-LC retention time [s],Structure (SMILES)
1,617,CCn1c(=O)cc(OCC(=O)NCCN(C)Cc2ccccc2)c2ccccc21
2,786,Cc1ccccc1NC(=O)N1C[C@@H]2CN(S(=O)(=O)c3ccc(F)cc3)C[C@H](C1)O2
3,728,Cc1ccccc1NS(=O)(=O)c1c[nH]c2ncccc12
4,1210,Cc1nc(-c2ccc(-c3noc(C(C)Oc4ccccc4)n3)cc2)cs1 (centres undefined)
5,891,O=C(CSc1ncnc2c1[nH]c1ccc(F)cc12)N1CCc2ccccc2C1
6,1110,Cc1ccc(C)c(NC(=O)c2csc(-c3cn(C)c4ncccc34)n2)c1
7,1050,CCc1nn(C)c(=O)c2cc(S(=O)(=O)N3CCC(Cc4ccccc4)CC3)cn12
8,760,CCn1c(=O)n(CC)c2cc(S(=O)(=O)c3ccc(C)cc3)c(N)cc21
9,627,CCc1nc2cc(N3CCC(C(=O)NCc4ccc(N(C)C)cc4)CC3)cnc2nc1CC
10,737,CCOc1ccc(NC(=O)CSc2ncc(S(=O)(=O)c3ccccc3)c(=O)[nH]2)cc1
11,731,CCN1C(=O)c2cccc3c(NC(=O)c4cccs4)ccc1c23
12,1100,O=C(CCc1cn(-c2ccccc2)nc1-c1ccc2c(c1)OCO2)NCCc1ccco1
13,990,CCOC(=O)c1ccc(Nc2c(CC)c(C)nc3nc(-c4ccccc4)nn23)cc1
14,601,Cc1nn(C(C)C(=O)NCCN(C)C)c(=O)c2nn(-c3ccccc3)c(C)c12 (centres undefined)
15,752,O=C(Cc1nnc(-c2ccc3ncccc3c2)o1)NCc1ccc(F)cc1Cl
16,1140,CCn1c(=O)c2ccccc2n(Cc2nc(-c3ccc(Cl)c(F)c3)no2)c1=O
17,886,COc1ccc(-c2csc(NC3=NS(=O)(=O)c4ccccc43)n2)cc1
18,880,O=C(c1cncc(NS(=O)(=O)c2ccc(Cl)cc2)c1)N1CCCc2ccccc21
19,912,COCCn1cc2c3c(cccc31)CN(C(=O)NCCC(C)C)CC2
20,1210,O=C(Nc1ccccc1)c1c(O)c2cccnc2n(-c2cccc(F)c2)c1=O
21,627,CN(C(=O)Cn1nc(Cc2ccncc2)c2ccccc2c1=O)c1ccccc1Cl
